The record followed here is patent US12029715B2, “Precursor compounds for providing retinoids of the vitamin A5 pathway and uses thereof” (UNIVERSITY OF DEBRECEN, priority 2015, dated 2024).

The test system of data set [1] is C57BL/6N mice. The data set is described as follows: Chronic social defeat stress model, forced swim test. Particulars: stressed mice, 10 mg/kg i.p. every second day of stress protocol; 10 mg/kg. In kind it is in vivo, mouse. The procedure: (§1) The forced swim paradigm was carried out between 1 pm and 4 pm in a 3-litre glass beaker half-filled with water at 22-23° C. (the water depth was 17 cm). All mice were tested only once in this task. To this end, each mouse was lowered gently into the water and the time of immobility was scored during a 6-minute testing period. The mouse was judged immobile when it floated in an upright position and made only small movements to keep its head above the water. After 6 min, the mouse was taken out of the water, left to dry under a red light lamp and returned to its home cage. The immobility scores of each animal were used as an index of despair behavior.
(§2) Social defeat stress procedure was a modified version of the protocol previously described (Berton, McClung et al. 2006). C57BL/6N mice were defeated chronically for 10 consecutive days. Every day they were exposed to the physical contact with an unfamiliar CD1 aggressor in its home cage for maximal interaction time of 5 minutes. After each session of physical stress, C57BL/6N and CD1 mice were separated by a perforated wall and maintained in sensory contact for 24 h. After the last session of stress, mice were transferred into new cages and housed separately throughout the behavioral tests period. C57BL/6N control mice, similarly to the experimental animals, were housed two per cage separated by a metal perforated wall. Every day, they were exposed to the physical contact for 5 minutes.
For behavioral analysis, 9CDHROL and 9CDHBC were dissolved in ethanol, and then mixed with sunflower oil, so that the final solution contained 3% ethanol. Vehicle treatments consisted of 3% ethanol solution in sunflower oil. For memory studies treatments with 9CDHRA were administered by intraperitoneal injections at volume/weight ratio 3 ml/kg at 7 am and 7 hours before the beginning of testing. For tests with animal model of chronic social defeat, different treatments were administered by intraperitoneal injections at volume/weight ratio 3 ml/kg at 10 mg/kg for each substance between 5-6 pm every second day of stress protocol immediately after the stress session starting from day 1 of the stress protocol.
as §1, with “paradigm (Dalvi and Lucki, 1999)” for “paradigm”, “2-litre” for “3-litre”
Social defeat stress procedure was a modified version of the protocol previously described (Berton et al. 2006). C57BL/6N mice were defeated chronically for 10 consecutive days. Every day they were exposed to the physical contact with an unfamiliar CD1 aggressor in its home cage for maximal interaction time of 5 minutes. After each session of physical stress, C57BL/6N and CD1 mice were separated by a perforated wall and maintained in sensory contact for 24 h. After the last session of stress, mice were transferred into new cages and housed separately throughout the behavioral tests period. […]

Data set [2] concerns C57BL/6N mice. The data set is described as follows: Chronic social defeat stress model, sucrose preference test. In kind it is in vivo, mouse. Particulars: stressed mice, 10 mg/kg i.p. every second day of stress protocol; 10 mg/kg.
Text: This task, designed to measure hedonic behaviors in mice is based on the palatable nature of sucrose observed in a number of mouse strains. On the first day of the test, sucrose-naive mice were placed in individual cages at 11 am and left there with water and food for habituation period. At 5 pm one water bottle was replaced with two bottles: one containing water and another 0.8% sucrose solution. Three hours later (8 pm) the bottles were weighed to measure liquid consumption and were replaced in cages until morning. The measures of an overnight consumption were then carried out for additional day to evaluate sucrose preference. Mice were not water deprived at any moment, in order to measure spontaneous sucrose preference and exclude any potential emotional confounds induced by stress of water deprivation. The sucrose preference was expressed as the percent of sucrose solution consumed with respect to total liquid consumption.
as §2
For behavioral analysis, 9CDHROL and 9CDHBC were dissolved in ethanol, and then mixed with sunflower oil, so that the final solution contained 3% ethanol. Vehicle treatments consisted of 3% ethanol solution in sunflower oil. For memory studies treatments with 9CDHRA were administered by intraperitoneal injections at volume/weight ratio 3 ml/kg at 7 am and 7 hours before the beginning of testing. For tests with animal model of chronic social defeat, different treatments were administered […] day of stress protocol immediately after the stress session starting from day 1 of the stress protocol.
This task, designed to measure hedonic behavior in mice (Moreau, 1997), is based on the palatable nature of sucrose observed in a number of mouse strains. On the first day of the test, sucrose-naive mice were placed in individual cages at 11 am and left there with water and food for habituation period. At 5 pm one water bottle was replaced with two bottles: one containing water and another 0.8% sucrose solution. Three hours later (8 pm) the bottles were weighed to measure liquid consumption and were replaced in cages until morning. The measures of an overnight consumption were then carried out for additional day to evaluate sucrose preference. Mice were not water deprived at any moment, in order to measure spontaneous sucrose preference and exclude any potential emotional confounds induced by stress of water deprivation. The sucrose preference was expressed as the percent of sucrose solution consumed with respect to total liquid consumption.
Social defeat stress procedure was a modified version of the protocol previously described (Berton et al. 2006). C57BL/6N mice were defeated chronically for 10 consecutive days. […]

In data set [3] the test system is human oligodendrocytes cell cultures. The data set is described as follows: Metabolic conversion in human oligodendrocytes cell culture (HPLC-MS). It is filed as in vitro ADME. How it is done: (§3) In a slight variant of the method, after reaching confluency of 80% cells were treated with 9CDHROL, 9CDH-retinyl ester (acetate, 9CDHROL-ES), 9CDHRA, 9CDH-retinoyl ester, (ethyl ester, 9CDHRA-ES), ATROL, 9CDHBC, 9CBC and ATBC at a concentration of 10^−6 M or ethanol at corresponding concentration was used as control vehicle treatment. Cells were harvested 18 hours later, centrifuged, weighted, frozen in liquid nitrogen and stored at −80° C. until analyses.
(§4) High performance liquid chromatography mass spectrometry (LC-MS) was carried out as described in Example 4.
9CDHRA levels including standard deviation in human oligodendrocytes cultures were assessed using HPLC-MS analysis after control treatment using ethanol (CTRL), as well as ATROL treatment (ATROL), 9CBC treatments (9CBC), ATBC treatments (ATBC), 9CDHBC treatment (9CDHBC), 9CDHROL treatments (9CDHROL), 9CDHROL-ester treatments (9CDHROL-ES), 9CDHRA treatments (9CDHRA) or 9CDHRA-ester treatments (9CDHRA-ES), each with 10^−6M concentration and n=3 (FIG. 14D).

The conditions of data set [4]: after column chromatography.
Data set [5] is described as follows: Mouse oral supplementation, retinoid levels in serum, brain and liver (LC-MS). It is filed as in vivo. Particulars: mice.
Experimental: For metabolic analyses ATROL, 9CDHROL, 9CDHBC and control solutions were prepared as described above. Single per os application of the dose of 40 mg/kg of each substance was used to treat mice in the evening and samples were collected 11 h later in the light protected conditions, weighted, frozen in liquid nitrogen and stored at −80° C. until analyses. Serum was prepared and immediately stored in brown vials at −80° C., till further analysis.
Accordingly, for sample preparation 100 mg of the material (if samples were under 100 mg, water was added up to the used standard weight: 100 mg) or 100 μl serum was diluted with a threefold volume of isopropanol, the tissues were minced by scissors, vortexed for 10 seconds, put in a ultrasonic bath for 5 minutes, shaken for 6 minutes and centrifuged at 13000 rpm in a Heraeus BIOFUGE Fresco at +4° C. […] The dried extracts were resuspended with 30 μl of methanol—MTBE (50-50) and transferred into the autosampler and 10 μl subsequently analysed.
Mouse brain samples were prepared according to the procedure described above. Briefly, after single per os application of the dose of 40 mg/kg of 9CDHROL (or other cited substances) in the evening mice were sacrificed after 11 hours and tissues samples including brain were dissected under light-protection conditions, weighted, frozen in liquid nitrogen and stored at −80° C. until analyses. Serum was prepared and immediately stored in brown vials at −80° C., till further analysis.
For mouse supplementation experiments we treated n=6 mice per os with 40 mg/kg bw 9CDHROL and 11 h after the treatment the mice were killed and blood, brain and liver was taken. After centrifugation of the drawn blood, serum was obtained.
In data set [6] the test system is oligodendrocytes cell line 158N. In words: Metabolic conversion in mouse oligodendrocytes cell culture (LC-MS). It is filed as in vitro ADME. How it is done: Normal immortalized oligodendrocytes cell line 158N was cultured as previously reported (Feutz et al., 2001). Expediently, cells were cultured in supplemented with 5% calf serum (Invitrogen, France). When cells attained 70% of confluency they were treated with 10^−2 M ethanol solution of one of the following compounds: 9CDHROL, 9CDHROL-acetate, 9CDHRA-ethyl ester. 9CDHRA and ethanol as controls, vehicle treatment. 18 h after treatment cells were collected in amber Eppendorf tubes and stored at −80° C. until analyses. Treatments and cell collection were carried out in light limited conditions to avoid photolysis of retinoids.
as §3, §4

Where [7] appears, read: per os 40 mg/kg, 11 h after treatment.

Entries after “also recorded” stand apart in the source; their conditions may differ.

Consider `CC1=C(/C=C/C(C)=C\C=C\[C@H](C)C/C=C/C=C(C)/C=C/C=C(C)/C=C/C2=C(C)CCCC2(C)C)C(C)(C)CCC1` (stereo in doubt) [9CDHBC, (R)-9-cis-13,14-Dihydro-β,β-carotene], for which the “immobility time in the forced swim test” value in the data set with C57BL/6N mice [1] is on record as “decreased such immobility; also recorded: efficiently normalised immobility time”. Besides, the “sucrose preference (anhedonia)” value in the data set with C57BL/6N mice [2] was “prevented; also recorded: Anhedonia was abolished”. Besides, the “9CDHRA levels in cells after treatment (metabolism / accumulation)” value in data set [3] (10^−6M, n=3) is “not converted to 9CDHRA”. The “precursor substrate of 9CDHROL” value in data set [3] (in vitro) is on record as “excellent precursor substrates”. The “stability of the isolated product” value in data set [4] was “very unstable and easily degraded”. Also, the “ATROL levels in mouse organs after treatment” value in data set [5] (oral gavage 40 mg/kg) is given as “no metabolic conversion”. Further, in data set [5] (setting [7]), the “9CDHRA levels in serum, brain and liver after treatment (conversion to 9CDHRA)” value is “moderate but significant increase”; the “9CDHROL levels in serum, brain and liver after treatment” value is given as “did not increase”. In data set [6] (10^−6M), the “ATROL levels in cells after treatment” value is given as “a low conversion or induced increase”. Further, the “9CDHROL levels in cells after treatment” value in data set [6] (10^−6 M, 18 hours) is recorded as “increases; also recorded: moderately”. Also, the “9CBC in cells after treatment” value in data set [6] (411 nm detection, retention time 26.1 min) is “no 9CBC could be detected”. The “9CDHBC peak in cells after treatment” value in data set [6] (UV detection at 366 nm, retention time 25.1 min) was “even higher peak was conclusively detected”. In data set [6] (data not shown), the “conversion to 9CDHRA” value is on record as “not converted to 9CDHRA”.
